Measurements reported in patent US20130202629A1, “USES OF PHOSPHOLIPID CONJUGATES OF SYNTHETIC TLR7 AGONISTS” (The Regents of the University of California, priority 2010, published 2013).

Experiments:
[1] = tested on: Anthrax Sterne strain spores; format: in vivo, Bacillus anthracis
[2] = Nanoparticle size and stability in PBS (Malvern Zetasizer); format: physicochemical; details: 50 μM or 100 μM
Description: 1V270 was dissolved in Phosal 50 PG (Phospholipid Gmbh, Cologne, Germany) to make a 20× concentrated solution. The Phosal 50 PG-1V270 mixture was further diluted (1:19) with nanopure water to make a 5% Phosal 50 PG:water suspension. The suspension was vortexed vigorously and sonicated in a sonicating bath for 10 minutes. The suspension was further sonicated with a probe sonicater (Branson Sonifier Cell Disrupter 185) at 30% power for a total of 30 seconds at 10 second intervals with 10 seconds rest between so as to not overheat the suspension. Finally, the suspension was passed through a 100 nm filter with syringe extruder a total of 10 times back and forth. The final nanoparticles were analyzed with a Malvern Zetasizer to check size distribution. The resulting particles may be referred to as nanoliposomes (a submicron bilayer lipid vesicle) (see Chapter 2 by Mozafari in: Liposomes, Methods in Molecular Biology, vol. 605, V. Weissing (ed.), Humana Press, the disclosure of which is incorporated by reference herein). Nanoliposomes provide more surface area and may increase solubility, bioavailability and targeting.
UV-1V270 particles were diluted in PBS to 50 μM (A) or 100 μM (B) and particle size measured over time. […] The particle size of UV-1V270 in PBS was relatively constant with an average of about 110 nm regardless of concentration.

A/J mice = assay: Local (BALF) and systemic cytokine induction after intranasal administration; format: in vivo, mouse
Description: 1V270 induces local inflammation by pulmonary administration. To study the ability of phospholipid conjugated TLR7 to initiate the local inflammation, 6 to 8-week old female A/J mice were intranasally administered with 1V270 (0.5, 1, 2 or 4 nmol per animal) in 5% DMSO in PBS. Mice were sacrificed two hours after the administration and serum and bronchial lavage fluid (BALF) were collected. The levels of IL-6, IL-12 and TNFα were determined by Luminex beads assay.
A/J mice received 10 nmol/animal 1V270 intranasally and BALF were collected 24, 48, and 72 hours after the administration. 1V270 could induce IL-12 and TNFα up to 48 hours (FIG. 10).
BALF and plasma were collected 24 hours later and cytokine levels determined by multiplex luminex assay.

TLR7 = assay: IL-12 and IL-6 induction in BMDM from wild type and TLR7 deficient mice; format: cell-based, mouse; details: BMDM from TLR7 deficient (TLR7-KO) mice
C57BL/6 mice = format: in vivo, mouse
Description: Anti-OVA antibodies of the IgG subclasses (and in some embodiments specifically IgG1 and IgG2) were measured by ELISA, as described in Cho, H. J et al., “Immunostimulatory DNA-based vaccines induce cytotoxic lymphocyte activity by a T-helper cell-independent mechanism” [see comments], Nat. Each ELISA plate contained a titration of a previously quantitated serum to generate a standard curve. The titer of this standard was calculated as the highest dilution of serum that gave an absorbance reading that was double the background. The various sera samples were tested at a 1:100 dilution. The results are expressed in units per mL, calculated based on the units/mL of the standard serum, and represent the mean±SEM of five animals in each group. * and T denote P<0.05 and P<0.01 by One-way ANOVA compared to the mice immunized with OVA mixed with vehicle, respectively.
Spleenocytes were prepared from the harvested spleens. […] The levels of IFNα in the culture supernatants were measured by ELISA (BD Bioscience PharMingen) as per the manufacturer's instructions (Kobayashi, H et al., Prepriming: a novel approach to DNA-based vaccination and immunomodulation”, Springer Semin. Immunopathol., 22:85 (2000)), and the results illustrated in FIG. 5C. Average total spleen cell number in each group were calculated and compared to the PBS-immunized groups to monitor the spleen cell proliferation. Data are mean±SEM of five mice and are representative of three independent experiments.
The efficiency of adjuvanticity was assessed by measurement of the levels and isotypes of the antigen-specific IgG that the vaccine induces, in particular IgG1 and IgG2 (Mosmann, T. R., and Coffman, R. L., ‘TH1 and TH2 cells: different patterns of lymphokine secretion lead to different functional properties’, Annual Review Immunology, 7:145 (1989)). […] ISS-ODN was used as a potent Th1 adjuvant positive control.

[3] = tested on: C57BL/6 mice or caspase 1 deficient; assay: Induction of bladder inflammation by intravesical treatment; format: in vivo, mouse; details: intravesical 150 nmoles
Source text: C57BL/6 mice or caspase 1 deficient were intravesically treated with 150 nmoles 1V270 or vehicle alone three times at two-day intervals. One set of mice was sacrificed twenty-four hours after the first treatment (FIG. 7). Another set of mice was sacrificed twenty-four hours after the third treatment. […] This inflammation was not detected in the caspase 1 deficient mice.

Solubility = format: physicochemical

With `CCCCCCCC/C=C\CCCCCCCC(=O)OCC(COP(=O)(O)OCCNC(=O)c1ccc(Cn2c(=O)[nH]c3c(N)nc(OCCOC)nc32)cc1)OC(=O)CCCCCCC/C=C\CCCCCCCC` (centres unmarked) [Compound 6, 2-(4-((6-amino-2-(2-methoxyethoxy)-8-oxo-7H-purin-9(8H)-yl)methyl)benzamido)ethyl 2,3-bis(oleoyloxy)propyl phosphate] the “survival on day 30, long term experiment” value ([1]; IRS mixed with 1 nmol, i.n. three times at two week intervals, challenge four weeks later) was 100%, the “survival on day 15, short term experiment” value ([1]; IRS with 1 nmol, single vaccination, challenge six days later) was “More than half” and the “effective dose, unformulated in DMSO” value ([1]; adjuvant with IRS) was 1 nmol. The “efficacy compared with cholera toxin (CT) as adjuvant” value ([1]; in vivo) was “slightly more effective than mice that received CT as an adjuvant”, the “protection from pulmonary anthrax infection” value ([1]; mucosal immunization with killed anthrax spores) was “completely protected mice from pulmonary anthrax infection” and the “spore-specific cellular immune responses” value ([1]; splenocytes of surviving mice cultured with IRS for 5 days) was “induced spore-specific Th1 and Th17 cellular immune responses”. For the same compound, the “nanoparticle stability over time” value [2] was “generally stable over time”, the “particle size, average diameter” value ([2]; regardless of concentration) was “about 110 nm” and the “persistence of IL-12 and TNFα induction in BALF” value (A/J mice; i.n. 10 nmol/animal) was “up to 48 hours”. For the same compound, the “local proinflammatory cytokines (IL-6, IL-12, TNFα) in BALF” value (A/J mice; i.n. 2 to 4 nmol in 5% DMSO in PBS, two hours after administration) was “induced local proinflammatory cytokines in the BALF”, the “localized versus systemic cytokine release” value (A/J mice; i.n., BALF and plasma 24 hours later) was “promoted localized cytokine release with minimal systemic side effects” and the “BALF cytokine levels compared with serum” value (A/J mice; i.n., two hours after administration) was “higher than those in the serum”. The “IL-12 and IL-6 induction in TLR7 deficient BMDM” value (TLR7) was “little or no IL-12 and IL-6”, the “adjuvant activity when administered with the antigen ovalbumin” value (C57BL/6 mice; mouse, in vivo) was “potent adjuvant” and the “earliest induction of OVA-specific antibodies of the IG subclass (FIG. 5A)” value (C57BL/6 mice; s.c. 20 μg OVA + 10 nmol conjugate on days 0 and 7) was 14 days. The “OVA-specific IFN secretion by spleen cells” value (C57BL/6 mice; splenocytes of day 56 restimulated with OVA (FIG. 5C)) was “enhanced”, the “bladder inflammation (mononuclear cell infiltration)” value ([3]; C57BL/6 mice, three times at two-day intervals) was “infiltration of mononuclear cells were observed and increased after the third treatment” and the “bladder inflammation in caspase 1 deficient mice” value ([3]; caspase 1 deficient mice) was “not detected”. The “solubility, in words” value (Solubility; aqueous solution / suitable solvents for testing) was “difficulty in dissolution” and the “upper limit of solubility” value (Solubility; in PBS) was about 100 µM.
